Data taken from article PMC10924921, “Mi-2β promotes immune evasion in melanoma by activating EZH2 methylation” (Nature Communications, 2024).

Columns and labels:
Experiment in all cases: biochemical
Parameters in all cases: KINOMEscan active-site competition binding panel (468 kinase assays), per cent of control at 1000 nM
Details in all cases: KINOMEscan per cent of control (binding competition); read-out: Percent Control
ALK(C1156Y) = ALK(C1156Y) (Homo sapiens, UniProt Q9UM73, C1156Y)
Text: (§1) Figure S7 / Percent Control

BUB1 = BUB1 (Homo sapiens, UniProt O43683)
Chain of BUB1 (O43683 whole entry): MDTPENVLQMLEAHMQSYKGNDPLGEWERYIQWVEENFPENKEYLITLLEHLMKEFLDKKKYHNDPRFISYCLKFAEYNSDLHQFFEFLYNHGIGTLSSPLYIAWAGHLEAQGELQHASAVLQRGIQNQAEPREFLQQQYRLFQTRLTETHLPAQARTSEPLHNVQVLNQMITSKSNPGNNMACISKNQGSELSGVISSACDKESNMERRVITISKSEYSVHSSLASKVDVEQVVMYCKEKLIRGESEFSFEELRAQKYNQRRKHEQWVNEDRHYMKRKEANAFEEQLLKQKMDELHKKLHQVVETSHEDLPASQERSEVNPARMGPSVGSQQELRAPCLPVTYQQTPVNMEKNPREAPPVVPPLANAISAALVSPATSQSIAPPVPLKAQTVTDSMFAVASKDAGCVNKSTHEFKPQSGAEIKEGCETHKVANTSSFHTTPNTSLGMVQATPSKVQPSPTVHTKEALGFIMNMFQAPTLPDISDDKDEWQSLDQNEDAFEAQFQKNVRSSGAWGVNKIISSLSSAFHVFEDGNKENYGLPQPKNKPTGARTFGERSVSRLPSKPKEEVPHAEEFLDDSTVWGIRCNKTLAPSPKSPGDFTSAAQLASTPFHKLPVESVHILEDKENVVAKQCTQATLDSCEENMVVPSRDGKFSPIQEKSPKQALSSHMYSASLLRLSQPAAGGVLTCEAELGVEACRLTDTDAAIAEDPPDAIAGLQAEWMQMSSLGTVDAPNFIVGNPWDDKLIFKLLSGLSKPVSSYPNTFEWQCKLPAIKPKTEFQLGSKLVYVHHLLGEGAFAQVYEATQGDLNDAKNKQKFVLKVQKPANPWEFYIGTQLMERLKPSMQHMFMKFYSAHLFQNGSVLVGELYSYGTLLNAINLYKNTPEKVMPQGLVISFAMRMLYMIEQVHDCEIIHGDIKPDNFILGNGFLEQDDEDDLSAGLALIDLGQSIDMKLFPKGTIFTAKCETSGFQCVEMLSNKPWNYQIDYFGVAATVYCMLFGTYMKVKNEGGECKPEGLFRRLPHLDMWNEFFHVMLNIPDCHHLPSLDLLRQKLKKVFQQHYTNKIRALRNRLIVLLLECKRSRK
Text: as §1

CDK4-cyclinD3 = biological target: T1, CDK4-cyclinD3 (Homo sapiens, UniProt P11802)
T1 construct: cyclinD3
Text: as §1

CSNK1D = CSNK1D (Homo sapiens, UniProt P48730)
Text: as §1

EPHB1 = EPHB1 (Homo sapiens, UniProt P54762)
Text: as §1

ERBB3 = ERBB3 (Homo sapiens, UniProt P21860)
Text: as §1

ERK8 = biological target: T2, ERK8 (Homo sapiens, UniProt Q8TD08)
T2 construct: gene MAPK15
Text: as §1

FGFR3 = FGFR3 (Homo sapiens, UniProt P22607)
Chain of FGFR3 (P22607 whole entry): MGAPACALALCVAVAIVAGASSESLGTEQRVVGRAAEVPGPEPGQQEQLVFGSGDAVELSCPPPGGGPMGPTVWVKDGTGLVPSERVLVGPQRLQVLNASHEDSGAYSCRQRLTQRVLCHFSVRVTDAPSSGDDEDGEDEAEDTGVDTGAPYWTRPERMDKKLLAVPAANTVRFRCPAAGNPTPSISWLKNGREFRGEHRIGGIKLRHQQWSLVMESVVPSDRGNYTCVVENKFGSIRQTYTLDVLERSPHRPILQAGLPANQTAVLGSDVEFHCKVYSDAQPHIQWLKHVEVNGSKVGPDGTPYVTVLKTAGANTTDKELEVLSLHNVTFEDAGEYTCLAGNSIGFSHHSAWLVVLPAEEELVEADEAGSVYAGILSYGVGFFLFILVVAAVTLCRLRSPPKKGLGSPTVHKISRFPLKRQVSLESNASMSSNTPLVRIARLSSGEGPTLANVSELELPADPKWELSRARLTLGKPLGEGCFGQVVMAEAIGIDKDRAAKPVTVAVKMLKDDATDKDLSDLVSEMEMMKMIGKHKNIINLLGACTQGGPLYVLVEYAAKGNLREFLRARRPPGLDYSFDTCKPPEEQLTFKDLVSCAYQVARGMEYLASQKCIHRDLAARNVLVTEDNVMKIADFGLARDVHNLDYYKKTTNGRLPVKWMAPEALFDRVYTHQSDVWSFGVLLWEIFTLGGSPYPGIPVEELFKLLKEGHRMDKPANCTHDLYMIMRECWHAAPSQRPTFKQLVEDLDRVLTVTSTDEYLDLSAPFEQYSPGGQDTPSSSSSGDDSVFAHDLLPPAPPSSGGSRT
Text: as §1

GRK4 = GRK4 (Homo sapiens, UniProt P32298)
Text: as §1

HIPK3 = HIPK3 (Homo sapiens, UniProt Q9H422)
Text: as §1

JNK1 = biological target: T3, JNK1 (Homo sapiens, UniProt P45983)
T3 construct: gene MAPK8
Text: as §1

KIT(D816H) = KIT(D816H) (Homo sapiens, UniProt P10721, D816H)
Text: as §1

KIT-autoinhibited = KIT-autoinhibited (Homo sapiens, UniProt P10721)
Text: as §1

NDR1 = biological target: T4, NDR1 (Homo sapiens, UniProt Q15208)
T4 construct: gene STK38
T4 sequence (Q15208 whole entry): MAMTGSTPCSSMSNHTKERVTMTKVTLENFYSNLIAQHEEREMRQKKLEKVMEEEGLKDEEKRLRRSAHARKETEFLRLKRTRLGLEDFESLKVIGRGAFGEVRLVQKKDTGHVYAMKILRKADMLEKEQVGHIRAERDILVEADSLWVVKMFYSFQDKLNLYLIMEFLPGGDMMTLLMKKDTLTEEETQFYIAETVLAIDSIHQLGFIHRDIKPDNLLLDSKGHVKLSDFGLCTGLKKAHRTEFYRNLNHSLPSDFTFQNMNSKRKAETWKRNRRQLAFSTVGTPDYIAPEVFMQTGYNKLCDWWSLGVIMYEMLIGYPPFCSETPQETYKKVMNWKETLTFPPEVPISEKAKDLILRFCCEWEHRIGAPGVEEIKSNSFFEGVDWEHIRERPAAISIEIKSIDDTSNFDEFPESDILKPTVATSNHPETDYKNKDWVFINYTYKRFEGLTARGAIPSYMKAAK
Text: as §1

NEK10 = NEK10 (Homo sapiens, UniProt Q6ZWH5)
Text: as §1

NEK7 = NEK7 (Homo sapiens, UniProt Q8TDX7)
Text: as §1

PLK3 = PLK3 (Homo sapiens, UniProt Q9H4B4)
Chain of PLK3 (Q9H4B4 whole entry): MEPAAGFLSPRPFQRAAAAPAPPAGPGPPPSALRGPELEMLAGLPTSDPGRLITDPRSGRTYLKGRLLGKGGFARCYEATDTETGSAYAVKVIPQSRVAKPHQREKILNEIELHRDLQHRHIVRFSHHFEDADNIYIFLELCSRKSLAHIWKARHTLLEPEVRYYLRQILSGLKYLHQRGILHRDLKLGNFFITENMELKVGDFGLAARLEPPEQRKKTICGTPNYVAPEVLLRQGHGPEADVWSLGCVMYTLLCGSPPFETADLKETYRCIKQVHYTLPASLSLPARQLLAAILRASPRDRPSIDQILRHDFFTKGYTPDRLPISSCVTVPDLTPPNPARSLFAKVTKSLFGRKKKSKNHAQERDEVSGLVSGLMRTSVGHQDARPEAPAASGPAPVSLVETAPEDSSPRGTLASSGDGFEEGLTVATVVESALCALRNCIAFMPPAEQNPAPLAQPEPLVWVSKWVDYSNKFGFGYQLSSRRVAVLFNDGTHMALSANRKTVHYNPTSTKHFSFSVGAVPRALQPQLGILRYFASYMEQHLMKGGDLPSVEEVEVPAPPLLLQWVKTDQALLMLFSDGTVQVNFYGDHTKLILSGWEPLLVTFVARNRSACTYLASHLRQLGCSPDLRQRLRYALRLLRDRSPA
Text: as §1

PRKCD = PRKCD (Homo sapiens, UniProt Q05655)
Text: as §1

PRKG1 = PRKG1 (Homo sapiens, UniProt Q13976)
Chain of PRKG1 (Q13976 whole entry): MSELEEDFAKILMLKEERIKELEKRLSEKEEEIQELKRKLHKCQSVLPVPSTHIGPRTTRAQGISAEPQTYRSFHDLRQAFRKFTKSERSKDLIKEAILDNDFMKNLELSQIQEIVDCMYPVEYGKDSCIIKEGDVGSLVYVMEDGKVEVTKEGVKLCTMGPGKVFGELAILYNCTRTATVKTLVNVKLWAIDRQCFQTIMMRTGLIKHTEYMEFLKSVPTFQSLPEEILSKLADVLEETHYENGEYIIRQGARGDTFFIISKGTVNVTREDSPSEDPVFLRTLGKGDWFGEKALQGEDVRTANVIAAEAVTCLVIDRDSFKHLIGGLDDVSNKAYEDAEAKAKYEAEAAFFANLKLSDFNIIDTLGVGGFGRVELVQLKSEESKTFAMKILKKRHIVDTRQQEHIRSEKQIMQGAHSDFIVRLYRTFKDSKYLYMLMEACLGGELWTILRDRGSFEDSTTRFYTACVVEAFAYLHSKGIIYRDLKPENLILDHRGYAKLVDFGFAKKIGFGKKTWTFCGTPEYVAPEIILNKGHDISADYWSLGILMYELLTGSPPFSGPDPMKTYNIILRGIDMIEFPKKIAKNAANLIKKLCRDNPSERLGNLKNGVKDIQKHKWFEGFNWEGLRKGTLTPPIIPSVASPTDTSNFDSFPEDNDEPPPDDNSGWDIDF
Text: as §1

PRKR = biological target: T5, PRKR (Homo sapiens, UniProt P19525)
T5 construct: gene EIF2AK2
Text: as §1

ROCK2 = ROCK2 (Homo sapiens, UniProt O75116)
Text: as §1

SLK = SLK (Homo sapiens, UniProt Q9H2G2)
Chain of SLK (Q9H2G2 whole entry): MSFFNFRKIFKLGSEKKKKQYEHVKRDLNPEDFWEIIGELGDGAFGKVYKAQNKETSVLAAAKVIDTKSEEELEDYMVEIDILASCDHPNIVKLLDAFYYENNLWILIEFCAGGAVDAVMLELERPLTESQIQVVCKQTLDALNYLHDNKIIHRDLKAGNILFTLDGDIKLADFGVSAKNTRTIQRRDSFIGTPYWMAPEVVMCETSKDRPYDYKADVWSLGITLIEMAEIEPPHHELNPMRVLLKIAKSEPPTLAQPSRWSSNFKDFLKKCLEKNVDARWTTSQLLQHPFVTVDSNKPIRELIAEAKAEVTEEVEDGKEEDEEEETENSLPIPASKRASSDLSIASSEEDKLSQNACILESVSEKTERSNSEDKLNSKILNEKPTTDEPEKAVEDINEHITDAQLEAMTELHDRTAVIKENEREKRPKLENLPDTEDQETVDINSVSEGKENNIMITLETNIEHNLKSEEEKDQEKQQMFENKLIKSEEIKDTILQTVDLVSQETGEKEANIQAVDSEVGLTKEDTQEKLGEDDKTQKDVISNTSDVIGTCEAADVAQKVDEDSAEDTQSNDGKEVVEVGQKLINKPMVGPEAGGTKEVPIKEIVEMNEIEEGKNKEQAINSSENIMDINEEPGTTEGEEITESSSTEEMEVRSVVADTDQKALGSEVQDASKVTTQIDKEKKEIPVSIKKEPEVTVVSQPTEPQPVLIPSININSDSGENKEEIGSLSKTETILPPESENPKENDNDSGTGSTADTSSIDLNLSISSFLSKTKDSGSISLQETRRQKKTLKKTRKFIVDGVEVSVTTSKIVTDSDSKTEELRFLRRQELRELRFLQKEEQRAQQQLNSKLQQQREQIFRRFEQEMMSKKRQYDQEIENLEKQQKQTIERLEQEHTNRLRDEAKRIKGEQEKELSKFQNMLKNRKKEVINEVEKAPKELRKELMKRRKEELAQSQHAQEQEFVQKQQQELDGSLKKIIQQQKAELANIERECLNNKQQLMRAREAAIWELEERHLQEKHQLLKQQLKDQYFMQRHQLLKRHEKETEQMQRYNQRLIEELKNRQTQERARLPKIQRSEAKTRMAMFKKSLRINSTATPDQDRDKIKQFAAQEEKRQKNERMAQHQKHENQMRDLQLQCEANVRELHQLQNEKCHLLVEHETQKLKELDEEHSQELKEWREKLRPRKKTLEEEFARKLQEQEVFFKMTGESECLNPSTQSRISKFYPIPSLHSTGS
Text: as §1

TIE1 = TIE1 (Homo sapiens, UniProt P35590)
Text: as §1

ULK3 = ULK3 (Homo sapiens, UniProt Q6PHR2)
Text: as §1

VPS34 = biological target: T6, VPS34 (Homo sapiens, UniProt Q8NEB9)
T6 construct: gene PIK3C3
Text: as §1

Compound: Cn1c(=O)[nH]c2ccc(-c3cccc(C(=O)NC4CCn5ccnc5C4)c3)cc21 (stereo not shown) [Z36-MP5]
- remaining binding at 1 µM (ALK(C1156Y)): 92%
- remaining binding at 1 µM (BUB1): 73%
- remaining binding at 1 µM (CDK4-cyclinD3): 54%
- remaining binding at 1 µM (CSNK1D): 98%
- remaining binding at 1 µM (EPHB1): 89%
- remaining binding at 1 µM (ERBB3): 100%
- remaining binding at 1 µM (ERK8): 83%
- remaining binding at 1 µM (FGFR3): 84%
- remaining binding at 1 µM (GRK4): 52%
- remaining binding at 1 µM (HIPK3): 61%
- remaining binding at 1 µM (JNK1): 61%
- remaining binding at 1 µM (KIT(D816H)): 78%
- remaining binding at 1 µM (KIT-autoinhibited): 57%
- remaining binding at 1 µM (NDR1): 81%
- remaining binding at 1 µM (NEK10): 50%
- remaining binding at 1 µM (NEK7): 89%
- remaining binding at 1 µM (PLK3): 68%
- remaining binding at 1 µM (PRKCD): 97%
- remaining binding at 1 µM (PRKG1): 64%
- remaining binding at 1 µM (PRKR): 99%
- remaining binding at 1 µM (ROCK2): 61%
- remaining binding at 1 µM (SLK): 100%
- remaining binding at 1 µM (TIE1): 97%
- remaining binding at 1 µM (ULK3): 71%
- remaining binding at 1 µM (VPS34): 49%
